Legend:
human diabetic patients = settings: 4.5 g/day; cited from earlier work
[1] = Chemical stability of conjugates in neutral, acidic and basic solutions; format: physicochemical
Description: Exemplary expérimental results showing the efficacy of certain embodiments of the combinations of the invention are set forth in the drawings. Stability studies were performed on thioester conjugates of N-acetylcysteine and salicylate, diflunisal or dexibuprofen, at neutral (pH 7), acidic, or basic (9) pH in phosphate-buffered saline (PBS). […] Diflunisal-NAC conjugates were tested for 3 or 24 hours under the same neutral, acidic and basic conditions, at room température or 4° C., and in PBS or mixture of water and méthanol.

[2] = Cleavage by rat liver microsomes; format: in vitro ADME; settings: 1 hour incubation; for cleavage of conjugate, rat versus human microsomes: free salicylate or diflunisal assayed
Description: (§1) In vitro cleavage experiments were performed substantiallas described in Singh et al., 1996, In vitro metabolism of a potent HIV-protease inhibitor (141W94) using rat, monkey and human liver S9, Rapid Commun. Mass Spectrom. 10: 1019-1026. Briefly, conjugate compounds of the invention were incubated at a final concentration of 1 microM for 1 hour in the presence of human or rat liver microsome S9 (obtained from Xenotech). At the end of incubation at each of the time points reported, an equal volume of an organic mixture (acetonitrile/methanol, 50/50, v/v) was added to the incubation mixture followed by centrifugation. At this time blank microsomal extract was spiked with metabolites to create calibration standards for each metabolite at the following concentrations: 0 (blank), 0.05, 0.1, 0.5 and 1 microM. All samples were analyzed by HPLC-MS/MS and the peak areas corresponding to the expected metabolites (generally, antioxidant and anti-inflammatory cleaysasge products) were determined by HPLC-MS/MS. The amount of each metabolite present in the 60 minute incubation samples was determined from the corresponding calibration curve.
The capacity for conjugates of the invention to be cleaved was tested in vitro using rat or human liver microsomes. […] Similar experiments were performed in plasma from rat or human for salicylate-NAC or diflunisal-NAC conjugates; thèse results are shown in FIGS. 3 and 4, respectively.

[3] = system: alloxan-treated cd-1 mice; experiment: In vivo beta cell protection model (alloxan); settings: for plasma insulin levels: lysine salt, alloxan-treated (FIG. 6)
Description: Beta-cell destruction was induced in cd-1 mice after 3 hours of fasting by a single intraperitoneal injection of a freshly prepared solution of alloxan 200 mg/kg (Sigma-Aldrich, San Luis, Mo.) that was dissolved in NaCl 0.9%. Single intraperitoneal drug administration was 1 hour before the alloxan administration. Animals received the different drugs dissolved in PBS pH 7.4, and the animals that not received any drug were injected with the vehicle, in this case PBS pH 7.4. At the end of the treatment, at day 4, animals were killed and the plasma collected and kept at −20° C. until used.
(§2) The circulating glucose concentration was determined by a rapid glucose analyzer (Accu-Chek Aviva; Roche). Plasma triglycerides and non esterified fatty acids were determined with standard colorimetric methods (Biosystems, Barcelona, Spain, and Wako Chemicals, Neuss, Germany, respectively). Plasma insulin concentration was determined by enzyme-linked immunosorbent assay method (CrystalChem, Downers Grove, Ill.). Total pancreas insulin content has been determined after extraction of insulin with a mixture Ethanol (70%)/HCl (0.15 N) from pancreas homogenates.

db/db mice [4] = experiment: Chronic treatment in db/db mice; format: in vivo
db/db mice [5] = experiment: Intraperitoneal glucose tolerance test in db/db mice; format: in vivo; settings: salicylate-NAC 1.5, diflunisal-NAC 0.5 mmol/kg/day as lysine salt; glucose 0.5 g/kg ip, 120 minute timecourse
Description: At the fourth week of treatment, a Glucose Tolerance Test was done to the mice after an overnight fasting. The animals received an ip injection of Glucose 0.5 g/kg (Glucosmon 50®). The glycemia levels were determined in blood at the indicated time from the Tail Vein after the Glucose injection using a rapid glucose analyzer.

[6] = Cleavage by human liver microsomes; format: in vitro ADME; settings: 1 hour incubation; diflunisal-NAC compared with salicylate-NAC
Description: as §1
The capacity for conjugates of the invention to be cleaved was tested in vitro using rat or human liver microsomes. […]

db/db mice [7] = experiment: Pancreas insulin content and immunohistochemical analysis of pancreas sections in db/db mice; format: in vivo; settings: chronic oral, four weeks, 0.5 mmol/kg/day (FIG. 24)
Description: as §2
The pancreas was removed from each mouse and fixed overnight in a solution of 4% formalin. Fixed tissues were processed routinely for paraffin embedding, and 6-μm sections were prepared and mounted on slides treated with xilane. For detection of insulin, the avidin-biotin complex (ABC) method was performed using Vectastain ABC Kit (Vector Laboratories). Deparaffinized and […] sections were microwaved in citrate buffer (pH 6.0) for antigen retrieval, then were incubated in Tris 100 mM pH 7.4 containing 3% BSA, and 0.01% Triton, to permeabilize and block nonspecific staining, for 30 min, and after that, were incubated with the guinea pig polyclonal anti-insulin antibody (Dako), diluted 1/500 in blocking solution for 2 hours. Negative controls were incubated with blocking solution without the primary antibody. […]

[8] = Diflunisal and NAC blood levels after oral administration of conjugate versus separate components; format: in vivo, rats; settings: 7-hour timecourse (FIG. 16)
Description: A comparison of diflunisal and NAC levels in blood after oral administration was performed in rats by administration of the diflunisal-NAC conjugate (GMC-252) or the individual components separately (i.e., not chemically conjugated). Conjugate (20 mg/kg) or the equivalent amount of difliunisal and NAC were administered and blood assayed over a 7-hour timecourse.

control animals = experiment: Preliminary experiment with control animals (oral diflunisal-NAC); format: in vivo; settings: oral 0.5 mmol/kg
[9] = 0.75 mmol/kg/day as lysine salt, ip, compared with separate administration of salicylate or NAC (FIG. 7)

O=C(Oc1ccccc1C(=O)O)c1ccccc1O [salsalate]
enhancement of side effects such as tinnitus (human diabetic patients): 66%

CC(=O)N[C@@H](CSC(=O)c1ccccc1O)C(=O)O [Example 1, (R)-2-acetamido-3-(2-hydroxybenzoylthio)propanoic acid]
stability under acidic conditions, lysine salt ([1]; 3 h): stable after 3 hours | stability, free acid in the absence of lysine ([1]; 3 days): lost stability during a 3-day timecourse | detectable conjugate under basic conditions ([1]; basic pH (9), PBS, room temperature, 3 hour incubation, free acid and lysine salt tested): only the lysine salt showed any (sparing) détectable conjugate | cleavage of conjugate, rat versus human microsomes [2]: Rat microsomes were found to be more potent in cleaving | glycemia ([3]; 0.38 mmol/kg or equivalent amount of combination, 4-day timecourse, male cd-1 mice (FIG. 17)): statistically-significant reduction | pancreatic beta-cell function (as assessed by plasma insulin levels) ([3]; alloxan-treated mice (FIG. 17)): statistically-significant potection of pancreatic beta-cell function | plasma insulin levels ([3]; i.p., listed as GMC-3a): preservation of insulin levels | plasma insulin levels ([3]; i.p., listed as salicylate-NAC): an increase in plasma insulin levels | effect of alloxan on β-cells ([3]; lysine salts (FIG. 6)): reduce the effect of alloxan on β-cells | glycemia ([3]; lysine salts, i.p., 4-day timecourse (FIG. 6)): statistically-significant reductions in glycemia | free fatty acid levels (db/db mice [4]; 0.38 mmol/kg/day or equivalent amount of combination (FIG. 18)): lowered significantly only by the conjugate | free fatty acid levels (db/db mice [4]; [9]): significantly improved | plasma triglyceride levels (db/db mice [4]; [9]): significantly improved | free fatty acid levels (db/db mice [4]; 0.75 mmol/kg/day or equivalent amount of combination (FIG. 18)): statistically-significant reductions | triglycerides (db/db mice [4]; chronic oral, diflunisal-NAC 0.5, salicylate-NAC 1.5 mmol/kg/day as lysine salt (FIG. 11)): significant réductions in triglycerides | plasma glucose in glucose tolerance test (db/db mice [5]): reductions in plasma glucose

CC(=O)NC(CSC(=O)C(C)c1ccc(CC(C)C)cc1)C(=O)O (stereo not drawn) [Dexibuprofen-NAC]
stability of free acid in water/methanol mixture ([1]; free acid, water/methanol, 3 and 24 hours (diflunisal-NAC: neutral pH, room temperature)): stable for 3- and 24-hour incubation | stability of lysine salt at neutral pH ([1]; lysine salt, neutral pH, room temperature or 4° C.): stable as lysine salts

CC(=O)N[C@@H](CSC(=O)c1cc(-c2ccc(F)cc2F)ccc1O)C(=O)O [Example 13]
stability of lysine salt in PBS, 3 hours [1]: stable | stability of lysine salt in water/methanol mixture [1]: did not show comparable stability | stability of lysine salt in PBS, 24 hours ([1]; 24 h, pH 7): not after 24 hours | stability of free acid in water/methanol mixture ([1]; pH 7): stable over 3 and 24 hours | cleavage of conjugate, rat versus human microsomes [2]: Rat microsomes were found to be more potent in cleaving | percentage of anti-inflammatory component released by rat liver microsomes ([2]; diflunisal-NAC compared with salicylate-NAC): a higher percentage of diflunisal that salicyalte was released | percentage of anti-inflammatory component released by human liver microsomes [6]: a higher percentage of diflunisal that salicyalte was released | body weight of treated db/db mice (db/db mice [4]; oral 0.5 mmol/kg (FIG. 20)): did not affect the weight | epididimal adipose tissue weight (db/db mice [4]; oral 0.5 mmol/kg, treated group (vehicle 1.7±0.09)): 1.8 ± 0.07 g | macroscopic lesions of the gastro intestinal system (db/db mice [4]; oral treatment of db/db mice): did not induce any macroscopic lesions | pancreatic weight (db/db mice [7]): without affecting pancreatic weight | plasma concentration profile of diflunisal and NAC ([8]; oral 20 mg/kg conjugate versus equivalent diflunisal and NAC given separately): a more gradual increase in plasma concentrations | final plasma concentrations of diflunisal and NAC ([8]; oral 20 mg/kg conjugate versus separate components): the final concentrations were the same | body weight and epididimal adipose tissue weight (control animals): did not affect these two parameters

From US8575217B2, “Anti-inflammatory and antioxidant conjugates useful for treating metabolic disorders” (Genmedica Therapeutics SL, priority 2009, dated 2013)
